Key:
Test in all cases: NCI 60 human tumor cell line screen (SRB)
Type in all cases: cell-based
HCT-15 = HCT-15 (Colon Cancer); 48 h
Procedure, shortened: (§1)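 Cells plated 24 h before dosing, with time-zero plates TCA-fixed at drug addition; five concentrations (10-fold or ½-log dilutions) added and incubated 48 h at 37 °C, 5% CO2. Adherent cells fixed with 10% TCA, stained with 0.4% SRB, absorbance read at 515 nm; GI50, TGI and LC50 derived from percentage growth versus time zero and control.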

U251 = U251 (CNS Cancer); 48 h
Procedure, shortened: as §1

SF-295 = SF-295 (CNS Cancer); 48 h
Procedure, shortened: as §1

PC-3 = PC-3 (Prostate Cancer); 48 h
Procedure, shortened: as §1

SF-268 = SF-268 (CNS Cancer); 48 h
Procedure, shortened: as §1

BT-549 = BT-549 (Breast Cancer); 48 h
Procedure, shortened: as §1

IGROV1 = IGROV1 (Ovarian Cancer); 48 h
Procedure, shortened: as §1

UACC-62 = UACC-62 (Melanoma); 48 h
Procedure, shortened: as §1

OVCAR-4 = OVCAR-4 (Ovarian Cancer); 48 h
Procedure, shortened: as §1

DU-145 = DU-145 (Prostate Cancer); 48 h
Procedure, shortened: as §1

SK-OV-3 = SK-OV-3 (Ovarian Cancer); 48 h
Procedure, shortened: as §1

SK-MEL-5 = SK-MEL-5 (Melanoma); 48 h
Procedure, shortened: as §1

MALME-3M = MALME-3M (Melanoma); 48 h
Procedure, shortened: as §1

In the case of `CC(C)C[C@H](NC(=O)[C@H](Cc1ccccc1)NC(=O)[C@H](COC(F)F)NC(=O)CN1CCOCC1)C(=O)[C@@]1(C)CO1` [Example 25, (2S)-2-[[(2S)-3-(difluoromethoxy)-2-[(2-morpholinoacetyl)amino]propanoyl]amino]-N-[(1S)-3-methyl-1-[(2R)-2-methyloxirane-2-carbonyl]butyl]-3-phenyl-propanamide], the Log10GI50 (HCT-15) is reported as −6.47, the Log10LC50 (HCT-15) is reported as >−4.00 and the Log10TGI50 (HCT-15) is reported as >−4.00. The Log10GI50 (U251) was −7.44, the Log10LC50 (U251) was >−4.00 and the Log10TGI50 (U251) was −6.75. It also gave a Log10GI50 (SF-295) of −7.68, a Log10LC50 (SF-295) of −6.49 and a Log10TGI50 (SF-295) of −7.26. It also gave a Log10GI50 (PC-3) of −7.45, a Log10LC50 (PC-3) of −5.14 and a Log10TGI50 (PC-3) of −6.80. For the same molecule, the Log10GI50 (SF-268) was −7.60, the Log10LC50 (SF-268) was >−4.00 and the Log10TGI50 (SF-268) was −7.14. It also gave a Log10GI50 (BT-549) of −7.73, a Log10LC50 (BT-549) of −7.05 and a Log10TGI50 (BT-549) of −7.39. The Log10GI50 (IGROV1) was −7.43, the Log10LC50 (IGROV1) was >−4.00 and the Log10TGI50 (IGROV1) was −6.38. It also gave a Log10GI50 (UACC-62) of −7.35, a Log10LC50 (UACC-62) of −4.58 and a Log10TGI50 (UACC-62) of −6.63. For the same molecule, the Log10GI50 (OVCAR-4) was −7.50, the Log10LC50 (OVCAR-4) was >−4.00 and the Log10TGI50 (OVCAR-4) was −6.75. The Log10GI50 (DU-145) was −7.27, the Log10LC50 (DU-145) was >−4.00 and the Log10TGI50 (DU-145) was −5.32. The Log10GI50 (SK-OV-3) was −7.30, the Log10TGI50 (SK-OV-3) was −6.60 and the Log10GI50 (SK-MEL-5) was −7.60. For the same molecule, the Log10LC50 (SK-MEL-5) was −6.49, the Log10TGI50 (SK-MEL-5) was −7.17 and the Log10GI50 (MALME-3M) was −7.51. The Log10LC50 (MALME-3M) was >−4.00 and the Log10TGI50 (MALME-3M) was −6.64.
